Test results from ChEMBL document CHEMBL5244271, “Targeted Drugs for Treatment of Pulmonary Arterial Hypertension: Past, Present, and Future Perspectives” (J Med Chem, 2020).

Experiments:
[1] = Half life in human; assay type: ADME
[2] = Activation of rabbit sGC assessed as induction of preconstricted aortic ring relaxation; settings: Oryctolagus cuniculus
[3] = Tmax in human; assay type: ADME
[4] = Half life in po dosed human; assay type: ADME, organism-based; settings: in vivo
[5] = Tmax in po dosed human; assay type: ADME, organism-based; settings: in vivo
Endothelin-1 receptor = target: T1, Endothelin-1 receptor (Homo sapiens, UniProt P25101); assay: Binding affinity to recombinant human ETA
T1 sequence (P25101 whole entry): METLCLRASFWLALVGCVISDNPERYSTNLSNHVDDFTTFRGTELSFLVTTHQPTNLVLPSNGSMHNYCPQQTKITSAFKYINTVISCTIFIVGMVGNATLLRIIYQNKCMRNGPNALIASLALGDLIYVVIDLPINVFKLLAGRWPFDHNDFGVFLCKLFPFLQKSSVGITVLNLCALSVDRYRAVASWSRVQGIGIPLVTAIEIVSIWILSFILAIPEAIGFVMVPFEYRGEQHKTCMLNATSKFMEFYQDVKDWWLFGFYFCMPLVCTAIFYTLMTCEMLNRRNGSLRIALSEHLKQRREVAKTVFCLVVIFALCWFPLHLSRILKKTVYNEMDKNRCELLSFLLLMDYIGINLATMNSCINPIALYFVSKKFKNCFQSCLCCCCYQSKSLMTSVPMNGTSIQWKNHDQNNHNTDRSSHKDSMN

[6] = target: T2, Endothelin receptor type B (Homo sapiens, UniProt P24530); assay: Binding affinity to human placenta ETB; assay type: tissue-based
T2 sequence (P24530 whole entry): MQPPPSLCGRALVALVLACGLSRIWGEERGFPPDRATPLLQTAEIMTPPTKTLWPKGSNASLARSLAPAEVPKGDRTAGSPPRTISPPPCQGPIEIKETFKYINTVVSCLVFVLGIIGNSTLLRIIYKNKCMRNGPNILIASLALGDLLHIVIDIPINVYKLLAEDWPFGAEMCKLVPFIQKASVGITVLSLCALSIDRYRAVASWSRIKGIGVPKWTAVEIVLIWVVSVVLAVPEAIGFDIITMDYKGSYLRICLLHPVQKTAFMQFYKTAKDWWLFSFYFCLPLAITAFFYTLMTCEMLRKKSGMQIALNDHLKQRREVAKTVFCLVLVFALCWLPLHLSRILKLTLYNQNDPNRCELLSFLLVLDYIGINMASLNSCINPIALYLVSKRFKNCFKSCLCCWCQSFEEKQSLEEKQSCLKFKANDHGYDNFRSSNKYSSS

`O=C(O)COC[C@H]1CC[C@H](COC(=O)N(c2ccccc2)c2ccc(Cl)cc2)CC1` gave a half-life [1] of 24 h.

Work on `OCc1ccc(-c2nn(Cc3ccccc3F)c3ccccc23)o1` yielded an IC50 [2] of 4.9 µM.

`NC(=O)[C@](O)(CNc1nc(-c2cc(-c3ccon3)n(Cc3ccccc3F)n2)ncc1F)C(F)(F)F` [OLINCIGUAT] showed a Tmax [3] of 2 h and a half-life [1] of 30 h.

`Nc1ccnc(-c2nn(Cc3ccccc3F)c3ncccc23)n1` showed an IC50 [2] of 0.27 µM.

`COC(=O)N(C)c1c(N)nc(-c2nn(Cc3ccccc3F)c3ncccc23)nc1N` [RIOCIGUAT] gave an IC50 [2] of 0.12 µM, a half-life [4] of 5 h and a Tmax [5] of 0.5 h.

With `Nc1nc(-c2nn(Cc3ccccc3F)c3ncccc23)ncc1C1CC1` the IC50 [2] was 0.304 µM.

Molecule `OC(CNc1nc(-c2cc(-c3ccon3)n(Cc3ccccc3F)n2)ncc1F)(C(F)(F)F)C(F)(F)F` has a half-life [1] of 24 h.

In the case of `Nc1nc(-c2nn(Cc3ccccc3F)c3ncccc23)nc(N)c1N1CCOCC1`, the IC50 [2] is reported as 0.1 µM.

`O=S(=O)(Nc1ncnc(OCCO)c1-c1ccccc1)c1ccc(C(F)(F)F)cc1` showed an IC50 (Endothelin-1 receptor) of 18 µM and an IC50 [6] of 2 µM.

For `CCCOc1ccc(S(=O)(=O)NCCC2CCCN2C)cc1-c1nc2c(CCC)nn(C)c2c(=O)[nH]1` (stereo not drawn), the Tmax [3] was 0.8 h and the half-life [1] was 12.3 h.

Molecule `OCc1ccc(-c2nn(Cc3ccccc3)c3ccccc23)o1` has an IC50 [2] of 10 µM.

For `OCc1ccc(-c2nn(Cc3ccccc3F)c3ncccc23)o1`, the IC50 [2] was 1.7 µM.

For `CN1CC(=O)N2[C@H](c3ccc4c(c3)OCO4)c3[nH]c4ccccc4c3C[C@@H]2C1=O`, the half-life [1] was 17.5 h.
